Tested on: SARS-CoV-2
Assay: microbe, parasite or virus in culture
Details: Severe acute respiratory syndrome coronavirus 2, Vero C1008, 48 h

Row | Structure (SMILES) | IC50 [µM] | IC50 (read-out: pIC50 (converted)) [µM]
1 | CN(C)c1cccc2c(S(=O)(=O)Nc3ccc(NC(=O)C(C)(C)CO)cc3)cccc12 [TOMEGLOVIR] | > 20 | > 20
2 | CCCc1c(OCCCCc2nnn[nH]2)ccc(C(C)=O)c1O [TOMELUKAST] | > 20 | > 20
3 | CC1(C)O[C@@H]2[C@@H](CO[C@@]3(COS(N)(=O)=O)OC(C)(C)O[C@@H]23)O1 [TOPIRAMATE] | > 20 | > 20
4 | CCOC(=O)N1c2ccc(C(F)(F)F)cc2[C@@H](N(Cc2cc(C(F)(F)F)cc(C(F)(F)F)c2)C(=O)OC)C[C@H]1CC [TORCETRAPIB] | > 20 | > 20
5 | Cc1cccc(Nc2ccncc2S(=O)(=O)NC(=O)NC(C)C)c1 [TORSEMIDE] | > 20 | > 20
6 | Cc1cc(Nc2cc(N3CCN(C)CC3)nc(Sc3ccc(NC(=O)C4CC4)cc3)n2)n[nH]1 [TOZASERTIB] | > 20 | > 20
7 | CC(CN(C)C)CN1c2ccccc2OCOc2ccc(Cl)cc21 (stereo not given) [TRABOXOPINE] | > 20 | > 20
8 | CCCCNc1c(C(=O)OCC)c(C)nc2c1cnn2CC [TRACAZOLATE] | > 20 | > 20
9 | CC(=O)Nc1cccc(-n2c(=O)n(C3CC3)c(=O)c3c(Nc4ccc(I)cc4F)n(C)c(=O)c(C)c32)c1 [TRAMETINIB] | > 20 | > 20
10 | CCOC(=O)[C@H](CCc1ccccc1)N[C@@H](C)C(=O)N1[C@H](C(=O)O)C[C@H]2CCCC[C@@H]21 [TRANDOLAPRIL] | > 20 | > 20
11 | NC[C@H]1CC[C@H](C(=O)O)CC1 [TRANEXAMIC ACID] | > 20 | > 20
12 | O=C(O)c1cc(=O)c2ccccc2[nH]1 [TRANSTORINE] | > 20 | > 20
13 | C[C@@H]([C@@H](O)c1ccc(O)cc1)N1CCC(O)(c2ccccc2)CC1 [TRAXOPRODIL] | > 20 | > 20
14 | O=c1n(CCCN2CCN(c3cccc(Cl)c3)CC2)nc2ccccn12 [TRAZODONE] | > 20 | > 20
15 | CC1Oc2ccccc2CC1N(C)C (stereo not given) [TREBENZOMINE] | > 20 | > 20
16 | OC[C@H]1O[C@H](O[C@H]2O[C@H](CO)[C@@H](O)[C@H](O)[C@H]2O)[C@H](O)[C@@H](O)[C@@H]1O [TREHALOSE] | > 20 | > 20
17 | Cn1c(=O)cc(N2CCC[C@@H](N)C2)n(Cc2cc(F)ccc2C#N)c1=O [TRELAGLIPTIN] | > 20 | > 20
18 | CS(=O)(=O)OC[C@H](O)[C@@H](O)COS(C)(=O)=O [TREOSULFAN] | > 20 | > 20
19 | CCCCC[C@H](O)CC[C@@H]1[C@H]2Cc3cccc(OCC(=O)O)c3C[C@H]2C[C@H]1O [TREPROSTINIL] | > 20 | > 20
20 | CC1=C(/C=C/C(C)=C/C=C/C(C)=C/C(=O)O)C(C)(C)CCC1 [TRETINOIN] | > 20 | > 20
21 | CC(C)(C)C(=O)C(Oc1ccc(Cl)cc1)n1cncn1 (stereo not given) [TRIADIMEFON] | > 20 | > 20
22 | CC1(C)O[C@@H]2C[C@H]3[C@@H]4CCC5=CC(=O)C=C[C@]5(C)[C@@]4(F)[C@@H](O)C[C@]3(C)[C@]2(C(=O)CO)O1 [TRIAMCINOLONE ACETONIDE] | > 20 | > 20
23 | CC(=O)OCC(=O)[C@@]1(O)[C@H](OC(C)=O)C[C@H]2[C@@H]3CCC4=CC(=O)C=C[C@]4(C)[C@@]3(F)[C@@H](O)C[C@@]21C [TRIAMCINOLONE DIACETATE] | > 20 | > 20
24 | CC(C)(C)CC(=O)OCC(=O)[C@@]12OC(C)(C)O[C@@H]1C[C@H]1[C@@H]3CCC4=CC(=O)C=C[C@]4(C)[C@@]3(F)[C@@H](O)C[C@@]12C [TRIAMCINOLONE HEXACETONIDE] | > 20 | > 20
25 | C[C@]12C=CC(=O)C=C1CC[C@H]1[C@@H]3C[C@@H](O)[C@](O)(C(=O)CO)[C@@]3(C)C[C@H](O)[C@@]12F [TRIAMCINOLONE] | > 20 | > 20
